Assay type in all cases: cell-based
Experiment [1] has as its system Human PMN cells. The experiment in a line: PMN chemotactic migration towards FMLP, Boyden chamber. As to the method:
Since ICAM-1 is involved in cell migration, cell migration towards a chemotactic peptide was studied in cells treated with Compound I and STI. Human PMN cells were placed in one side of a Boyden chamber, using standard techniques, and a chemotactic peptide (FMLP) was placed in the other chamber. Cells were allowed to migrate into the second chamber, and the number of migrating cells per field and distance of migration were calculated. The experiment was repeated with PMN cells pretreated with one of the following: 5 or 0.5 mg/ml STI, 1 or 0.1 μM Compound I, a buffer vehicle, and with and without chemotactic peptide. The number of cells per field that migrated the same distance as the untreated control was measured. Without the peptide and with no treatment, an average of 19 cells/field were migrating a distance of 80 microns. […] In other words, no cells (or less than 5/field) were identified at 115 microns. […] The ability to inhibit PMN migration is an important constituent of anti-inflammatory compounds.

For experiment [2], the system named is MelanoDerm equivalents. The experiment in a line: Pigmentation in melanocyte-containing epidermal equivalents. As to conditions: keratinocyte-melanocyte contact. As to the method:
(§1) Since PAR-2 is expressed in keratinocytes, but not in melanocytes, the possible requirement of keratinocyte-melanocyte contact was tested for the effect of Compound I and SLIGRL on melanosome phagocytosis by the keratinocytes. Primary melanocyte cultures (commercially available from Clonetics, San Diego) were plated under epidermal equivalents (EpiDerm, of MatTek, Ashland, Mass.) to create an equivalent-monolayer co-culture with no contact between keratinocytes and melanocytes. These co-cultures were compared to MelanoDerm equivalents (of MatTek), where melanocytes are present in the basal layer of the equivalent. Cultures were treated with Compound I, with the […], and with the PAR-2 agonist SLIGRL. As set forth in Table 3, keratinocytes are indicated by “K”, melanocytes are indicated by “M”, and lack of keratinocyte-melanocyte contact is indicated as “no K-M cont”. […] The same result was also observed with monolayer keratinocyte/melanocyte co-cultures having keratinocyte/melanocyte contact.

Experiment [3] relates to monolayer keratinocyte/melanocyte co-cultures. Briefly: Pigmentation in monolayer keratinocyte/melanocyte co-cultures (K-M contact). As to conditions: keratinocyte-melanocyte contact. As for the experimental part: as §1
Experiment [4] has as its system melanocyte cultures plated under epidermal equivalents (EpiDerm). Briefly: Pigmentation in equivalent-monolayer co-culture (no K-M contact). To be noted: no keratinocyte-melanocyte contact. As for the experimental part:
as §1

The results in this text go back to US20020197244A1, “Compositions and methods for regulating phagocytosis and ICAM-1 expression” (priority 1998, published 2002).

Consider FMLP [reference compound], for which, in experiment [1] (buffer without peptide: 80 μ), the “Migration (distance)” value was determined as 115 μ. Moreover, the Cells/Field in experiment [1] (cells counted at 115 microns, PMN pretreated with 5 or 0.5 mg/ml STI or 1 or 0.1 μM Compound I, buffer without FMLP: 19 at 80 μ) is given as 41 cells/field.

As for TFLLRNPNDK [printed as PAR-2 agonist], in experiment [2], the “level of pigmentation, Epidermal Equivalents (K-M cont.)” value was “no effect”. Moreover, the “level of pigmentation, Mono-Layer Co-Cultures (K-M cont.)” value in experiment [3] was “no effect”. Further, the “level of pigmentation, Equivalent Monolayer Co-culture (no K-M cont.)” value in experiment [4] is “no effect”.
